Laboratory results: patent US10544112B2, “Identification of ebsulfur analogues with broad-spectrum antifungal activity” (priority 2017, dated 2020)
Converted amounts (≈) assume the structure as drawn.

Key:
[1] = test system: Candida albicans ATCC 10231 (strain A); assay: Antifungal MIC determination (CLSI M27-A3, 96-well); type: cell-based; conditions: strain A; compounds 1-4n and AmB; 48 h, RPMI 1640
Protocol: (§1) Fungal MIC determination experiments were performed using untreated 96-well plates (Corning). Cells were counted either by using a hemocytometer (Hausser Scientific, Horsham, Pa., USA) or by measuring optical density at attenuance of 600 nm (OD600) by using a Genesys 20 spectrophotometer (Thermo Scientific, Waltham, Mass., USA). Spectrophotometric and colorimetric measurements in 96-well plates were performed using a SpectraMax M5 spectrometer (Molecular Devices, Sunnyvale, Calif., USA).
(§2) Yeast strains Candida albicans ATCC 10231 (strain A), C. albicans ATCC 64124 (strain B), and C. albicans ATCC MYA-2876(S) (strain C) were kindly provided by Dr. Jon Y. Takemoto (Utah State University, Logan, UT, USA). C. albicans ATCC MYA-90819(R) (strain D), C. albicans ATCC MYA-2310(S) (strain E), C. albicans ATCC 1237(R) (strain F), C. albicans ATCC MYA-1003(R) (strain G), Candida glabrata ATCC 2001 (strain H), Candida krusei ATCC 6258 (strain I), and Candida parapsilosis ATCC 22019 (strain J) were obtained from the American Type Culture Collection (ATCC, Manassas, Va., USA). The (S) and (R) indicate that ATCC reports these strains to be susceptible (S) and resistant (R) to ITC and FLC. The filamentous fungal strains Aspergillus flavus ATCC MYA-3631 (strain K), and Aspergillus terreus ATCC MYA-3633 (strain M) were also obtained from the American Type Culture Collection (ATCC, Manassas, Va., USA). Aspergillus nidulans ATCC 38163 (strain L) was kindly provided by Dr. Jon S. Thorson (University of Kentucky, Lexington, Ky., USA), respectively. Yeast strains were cultured at 35° C. Filamentous fungal strains were cultured at 25° C. and the spores were harvested. All fungal strains were cultured in RPMI 1640 medium (catalog # R6504, Sigma-Aldrich Chemical Co., St. Louis, Mo.) buffered to pH 7.0 with 0.165 M morpholinepropanesulfonic acid (MOPS) buffer (Sigma-Aldrich Chemical Co.).
(§3) The MIC values against fungal strains were determined based on a previously published protocol. MIC values for ebsulfur (2a) analogues against fungal cells were evaluated in 96-well plates as described in the CLSI document M27-A3 with minor modifications. […] Therefore, potato dextrose broth (PDB) was used to grow the yeast inocula of all strains tested, which were later diluted in RPMI 1640 medium to perform determination of MIC values. […] The tested compounds (10 mg/mL) were diluted to the working stocks (500 μg/mL) by addition of DMSO. Two-fold serial dilution of the working stocks was prepared by addition of RPMI 1640 medium (100 μL) and cell suspension (100 μL) to 96-well microtiter plate to achieve final drug and inoculum concentrations ranging from 12.5-0.02 μg/mL and 5×10^3 CFU/mL, respectively. Plates were incubated for 48 h at 35° C. […]

[2] = test system: Candida parapsilosis ATCC 22019 (strain J); assay: as above; type: cell-based; conditions: strain J; compounds 1-4n and AmB; 48 h, RPMI 1640
Protocol: as §1, §2, §3

[3] = test system: Candida glabrata ATCC 2001 (strain H); assay: as above; type: cell-based; conditions: strain H; compounds 1-4n and AmB; 48 h, RPMI 1640
Protocol: as §1, §2, §3

[4] = test system: Candida krusei ATCC 6258 (strain I); assay: as above; type: cell-based; conditions: strain I; compounds 1-4n and AmB; 48 h, RPMI 1640
Protocol: as §1, §2, §3

[5] = test system: Aspergillus terreus ATCC MYA-3633 (strain M); assay: Antifungal MIC determination, filamentous fungi spores; type: cell-based; conditions: strain M; all compounds; spores
Protocol: as §1, §2
(§4) The MIC values against fungal strains were determined based on a previously published protocol. MIC values for ebsulfur (2a) analogues against fungal cells were evaluated in 96-well plates as described in the CLSI document M27-A3 with minor modifications. […] Therefore, potato dextrose broth (PDB) was used to grow the yeast inocula of all strains tested, which were later diluted in RPMI 1640 medium to perform determination of MIC values. […] The tested compounds (10 mg/mL) were diluted to the working stocks (500 μg/mL) by addition of DMSO. Two-fold serial dilution of the working stocks was prepared by addition of RPMI 1640 medium (100 μL) and cell suspension (100 μL) to 96-well microtiter plate to achieve final drug and inoculum concentrations ranging from 12.5-0.02 μg/mL and 5×10^3 CFU/mL, respectively. Plates were incubated for 48 h at 35° C.
(§5) MIC assays for the spore-forming filamentous fungi, such as strain A. flavus ATCC MYA-3631 (strain K), were performed in a similar fashion. The filamentous fungal strains were first cultured at 25° C. on potato dextrose agar (PDA) plates for 3-5 days or until confluent. Spores were collected by washing the surface of the agar plates with dd H2O (5 mL) and then isolated the spores by gravity filtration (the spores are H2O soluble). […] Researchers working with spores should wear a facemask to prevent spore inhalation.

[6] = test system: Aspergillus nidulans ATCC 38163 (strain L); assay: as above; type: cell-based; conditions: strain L; spores
Protocol: as §1, §2, §4, §5

[7] = test system: Aspergillus flavus ATCC MYA-3631 (strain K); assay: as above; type: cell-based; conditions: all compounds
Protocol: as §1, §2, §4, §5

[8] = test system: C. albicans ATCC MYA-1003(R) (strain G); assay: microbe, parasite or virus in culture; type: cell-based, Candida albicans; conditions: strain G; compounds 1-4n and AmB; 48 h, RPMI 1640
Protocol: as §1, §2, §3

[9] = test system: C. albicans ATCC 90819(R) (strain D); assay: microbe, parasite or virus in culture; type: cell-based, Candida albicans; conditions: strain D; compounds 1-4n and AmB; 48 h, RPMI 1640
Protocol: as §1, §2, §3

[10] = test system: C. albicans ATCC MYA-1237(R) (strain F); assay: microbe, parasite or virus in culture; type: cell-based, Candida albicans; conditions: strain F; compounds 1-4n and AmB; 48 h, RPMI 1640
Protocol: as §1, §2, §3

[11] = test system: C. albicans ATCC 64124 (strain B); assay: microbe, parasite or virus in culture; type: cell-based, Candida albicans; conditions: strain B; compounds 1-4n and AmB; 48 h, RPMI 1640
Protocol: as §1, §2, §3

[12] = test system: C. albicans ATCC MYA-2876(S) (strain C); assay: Antifungal MIC determination (CLSI M27-A3, 96-well); type: cell-based, Candida albicans; conditions: strain C; compounds 1-4n and AmB; 48 h, RPMI 1640
Protocol: as §1, §2, §3

[13] = test system: C. albicans ATCC MYA-2310(S) (strain E); assay: as above; type: cell-based, Candida albicans; conditions: strain E; compounds 1-4n and AmB; 48 h, RPMI 1640
Protocol: as §1, §2, §3

SMILES	MIC-0 [1] [µg/mL]	MIC-0 [2] [µg/mL]	MIC-0 [3] [µg/mL]	MIC-0 [4] [µg/mL]	MIC-0 [5] [µg/mL]	MIC-0 [6] [µg/mL]	MIC-0 [7] [µg/mL]	MIC-0 [8] [µg/mL]	MIC-0 [9] [µg/mL]	MIC-0 [10] [µg/mL]	MIC-0 [11] [µg/mL]	MIC-0 [12] [µg/mL]	MIC-0 [13] [µg/mL]
O=c1c2ccccc2sn1-c1ccccn1 [Compound 2m]	6.25 (≈ 27.4 µM)	12.5 (≈ 54.8 µM)	12.5 (≈ 54.8 µM)	6.25 (≈ 27.4 µM)	12.5 (≈ 54.8 µM)	12.5 (≈ 54.8 µM)	12.5 (≈ 54.8 µM)	6.25 (≈ 27.4 µM)	6.25 (≈ 27.4 µM)	6.25 (≈ 27.4 µM)	6.25 (≈ 27.4 µM)	12.5 (≈ 54.8 µM)	6.25 (≈ 27.4 µM)
O=c1c2ccccc2sn1-c1ccc(F)cc1 [Compound 2b]	3.13 (≈ 12.8 µM)	12.5 (≈ 51 µM)	6.25 (≈ 25.5 µM)	3.13 (≈ 12.8 µM)	12.5 (≈ 51 µM)	12.5 (≈ 51 µM)	6.25 (≈ 25.5 µM)	1.56 (≈ 6.36 µM)	3.13 (≈ 12.8 µM)	6.25 (≈ 25.5 µM)	6.25 (≈ 25.5 µM)	3.13 (≈ 12.8 µM)	3.13 (≈ 12.8 µM)
CC(C)CCn1sc2ccccc2c1=O [Compound 3f]	1.56 (≈ 7.05 µM)	1.56 (≈ 7.05 µM)	1.56 (≈ 7.05 µM)	0.39 (≈ 1.76 µM)	0.10 (≈ 0.452 µM)	0.02 (≈ 0.0904 µM)	0.20 (≈ 0.904 µM)	1.56 (≈ 7.05 µM)	0.78 (≈ 3.52 µM)	0.78 (≈ 3.52 µM)	0.78 (≈ 3.52 µM)	1.56 (≈ 7.05 µM)	0.78 (≈ 3.52 µM)
CC(C)Cn1sc2ccccc2c1=O [Compound 3e]	0.78 (≈ 3.76 µM)	0.78 (≈ 3.76 µM)	1.56 (≈ 7.53 µM)	0.39 (≈ 1.88 µM)	0.10 (≈ 0.482 µM)	0.02 (≈ 0.0965 µM)	0.20 (≈ 0.965 µM)	1.56 (≈ 7.53 µM)	0.78 (≈ 3.76 µM)	0.78 (≈ 3.76 µM)	1.56 (≈ 7.53 µM)	0.78 (≈ 3.76 µM)	0.78 (≈ 3.76 µM)
O=c1c2ccccc2sn1-c1cc(Br)cc(Br)c1 [Compound 2i]	3.13 (≈ 8.13 µM)	6.25 (≈ 16.2 µM)	6.25 (≈ 16.2 µM)	6.25 (≈ 16.2 µM)	12.5 (≈ 32.5 µM)	3.13 (≈ 8.13 µM)	12.5 (≈ 32.5 µM)	6.25 (≈ 16.2 µM)	6.25 (≈ 16.2 µM)	3.13 (≈ 8.13 µM)	6.25 (≈ 16.2 µM)	6.25 (≈ 16.2 µM)	6.25 (≈ 16.2 µM)
